Assay results from PMC6437697 (Journal of Medicinal Chemistry, 2019).

Assays:
Experiment in all cases: KINOMEscan
Type in all cases: binding
CAMKK2 = molecular target: T1, CAMKK2 (Homo sapiens, UniProt Q96RR4); details: read-out: % control activity remaining
T1 construct: purchased Eurofins DiscoverX KINOMEscan

ERBB3 = molecular target: T2, ERBB3 (Homo sapiens, UniProt P21860); details: read-out: % control activity remaining
T2 construct: purchased Eurofins DiscoverX KINOMEscan

FAK = molecular target: T3, FAK (Homo sapiens, UniProt Q05397); details: read-out: % control activity remaining
T3 construct: purchased Eurofins DiscoverX KINOMEscan

FYN = molecular target: T4, FYN (Homo sapiens, UniProt P06241); details: read-out: % control activity remaining
T4 construct: purchased Eurofins DiscoverX KINOMEscan

HIPK1 = molecular target: T5, HIPK1 (Homo sapiens, UniProt Q86Z02); details: read-out: % control activity remaining
T5 construct: purchased Eurofins DiscoverX KINOMEscan

KIT(A829P) = molecular target: T6, KIT(A829P) (Homo sapiens, UniProt P10721, A829P); details: read-out: % control activity remaining
T6 construct: purchased Eurofins DiscoverX KINOMEscan

MLK2 = molecular target: T7, MLK2 (Homo sapiens, UniProt Q02779); details: read-out: % control activity remaining
T7 construct: purchased Eurofins DiscoverX KINOMEscan

MST3 = molecular target: T8, MST3 (Homo sapiens, UniProt Q9Y6E0); details: read-out: % control activity remaining
T8 construct: purchased Eurofins DiscoverX KINOMEscan
T8 sequence (Q9Y6E0 whole entry): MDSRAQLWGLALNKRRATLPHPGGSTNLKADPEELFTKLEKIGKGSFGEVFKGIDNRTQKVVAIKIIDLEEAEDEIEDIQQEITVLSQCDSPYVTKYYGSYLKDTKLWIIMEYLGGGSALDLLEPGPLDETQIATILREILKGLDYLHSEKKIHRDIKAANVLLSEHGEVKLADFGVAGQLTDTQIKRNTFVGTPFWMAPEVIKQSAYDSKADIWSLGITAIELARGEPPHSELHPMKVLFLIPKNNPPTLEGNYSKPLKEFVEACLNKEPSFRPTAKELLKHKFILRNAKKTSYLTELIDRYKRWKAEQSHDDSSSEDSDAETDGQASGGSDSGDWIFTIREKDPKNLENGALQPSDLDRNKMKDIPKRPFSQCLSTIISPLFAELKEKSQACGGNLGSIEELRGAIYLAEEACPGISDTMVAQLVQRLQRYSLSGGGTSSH

PDGFRB = molecular target: T9, PDGFRB (Homo sapiens, UniProt P09619); details: for remaining binding at 1 µM: read-out: % control activity remaining
T9 construct: purchased Eurofins DiscoverX KINOMEscan
T9 sequence (P09619 33-1106): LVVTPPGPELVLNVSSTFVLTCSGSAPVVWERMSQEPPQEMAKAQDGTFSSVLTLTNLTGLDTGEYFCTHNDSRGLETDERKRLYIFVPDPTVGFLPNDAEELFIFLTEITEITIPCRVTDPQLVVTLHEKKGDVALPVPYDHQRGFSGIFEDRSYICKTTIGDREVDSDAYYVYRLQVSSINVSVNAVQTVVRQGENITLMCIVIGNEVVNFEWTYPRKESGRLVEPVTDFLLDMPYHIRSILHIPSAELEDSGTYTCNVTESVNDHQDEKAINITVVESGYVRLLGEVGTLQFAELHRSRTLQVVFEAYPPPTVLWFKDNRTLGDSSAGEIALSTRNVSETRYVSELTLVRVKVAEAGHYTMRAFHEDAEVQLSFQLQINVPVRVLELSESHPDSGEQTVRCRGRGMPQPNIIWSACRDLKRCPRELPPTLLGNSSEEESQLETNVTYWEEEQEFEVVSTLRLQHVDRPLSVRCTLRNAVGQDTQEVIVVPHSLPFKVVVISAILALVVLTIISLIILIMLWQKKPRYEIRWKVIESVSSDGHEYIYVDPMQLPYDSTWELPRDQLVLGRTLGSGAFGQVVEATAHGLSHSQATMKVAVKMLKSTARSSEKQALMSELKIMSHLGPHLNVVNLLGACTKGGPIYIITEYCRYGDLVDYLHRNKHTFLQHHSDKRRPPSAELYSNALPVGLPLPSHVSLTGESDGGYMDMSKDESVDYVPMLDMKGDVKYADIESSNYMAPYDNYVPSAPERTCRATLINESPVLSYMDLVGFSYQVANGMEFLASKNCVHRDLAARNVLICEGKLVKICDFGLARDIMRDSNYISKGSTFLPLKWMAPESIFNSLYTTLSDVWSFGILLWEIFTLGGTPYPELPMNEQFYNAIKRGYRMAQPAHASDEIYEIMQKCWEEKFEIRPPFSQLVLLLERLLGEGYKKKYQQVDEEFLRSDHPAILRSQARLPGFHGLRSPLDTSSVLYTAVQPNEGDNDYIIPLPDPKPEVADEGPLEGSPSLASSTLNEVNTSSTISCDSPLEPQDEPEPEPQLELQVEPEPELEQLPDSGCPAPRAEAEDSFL

PIK3CA(E542K) = molecular target: T10, PIK3CA(E542K (Homo sapiens, UniProt P42336, E542K)); details: read-out: % control activity remaining
T10 construct: purchased Eurofins DiscoverX KINOMEscan
T10 sequence (P42336 whole entry E542K): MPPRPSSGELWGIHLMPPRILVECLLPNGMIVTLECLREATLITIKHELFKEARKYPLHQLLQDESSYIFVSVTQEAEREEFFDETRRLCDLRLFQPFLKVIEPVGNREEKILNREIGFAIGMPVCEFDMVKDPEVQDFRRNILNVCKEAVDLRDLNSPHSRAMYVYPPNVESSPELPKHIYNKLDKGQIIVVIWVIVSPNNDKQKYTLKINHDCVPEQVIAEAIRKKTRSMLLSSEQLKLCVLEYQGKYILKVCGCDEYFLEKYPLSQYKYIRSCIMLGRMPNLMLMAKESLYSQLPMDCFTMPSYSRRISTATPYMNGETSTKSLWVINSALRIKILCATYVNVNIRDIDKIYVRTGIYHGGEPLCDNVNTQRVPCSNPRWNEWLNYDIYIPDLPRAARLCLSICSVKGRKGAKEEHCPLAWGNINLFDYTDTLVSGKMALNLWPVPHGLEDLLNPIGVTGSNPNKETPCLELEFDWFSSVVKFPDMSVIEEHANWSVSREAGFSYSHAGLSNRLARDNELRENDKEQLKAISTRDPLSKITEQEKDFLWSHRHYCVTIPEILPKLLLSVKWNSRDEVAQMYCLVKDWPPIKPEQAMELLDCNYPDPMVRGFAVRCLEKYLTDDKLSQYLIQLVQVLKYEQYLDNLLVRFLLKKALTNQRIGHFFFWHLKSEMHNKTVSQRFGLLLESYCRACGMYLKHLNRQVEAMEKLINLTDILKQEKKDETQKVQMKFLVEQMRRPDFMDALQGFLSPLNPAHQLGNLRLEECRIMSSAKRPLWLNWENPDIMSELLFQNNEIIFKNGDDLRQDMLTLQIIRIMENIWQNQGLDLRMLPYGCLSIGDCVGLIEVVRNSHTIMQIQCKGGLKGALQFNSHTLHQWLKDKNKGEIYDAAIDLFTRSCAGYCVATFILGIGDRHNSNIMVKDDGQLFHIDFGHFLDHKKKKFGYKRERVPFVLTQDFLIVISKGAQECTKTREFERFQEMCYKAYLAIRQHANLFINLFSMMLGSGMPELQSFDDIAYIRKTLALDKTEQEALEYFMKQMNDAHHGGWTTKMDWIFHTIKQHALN

PIK3CD = molecular target: T11, PIK3CD (Homo sapiens, UniProt O00329); details: read-out: % control activity remaining
T11 construct: purchased Eurofins DiscoverX KINOMEscan
T11 sequence (O00329 1-1044): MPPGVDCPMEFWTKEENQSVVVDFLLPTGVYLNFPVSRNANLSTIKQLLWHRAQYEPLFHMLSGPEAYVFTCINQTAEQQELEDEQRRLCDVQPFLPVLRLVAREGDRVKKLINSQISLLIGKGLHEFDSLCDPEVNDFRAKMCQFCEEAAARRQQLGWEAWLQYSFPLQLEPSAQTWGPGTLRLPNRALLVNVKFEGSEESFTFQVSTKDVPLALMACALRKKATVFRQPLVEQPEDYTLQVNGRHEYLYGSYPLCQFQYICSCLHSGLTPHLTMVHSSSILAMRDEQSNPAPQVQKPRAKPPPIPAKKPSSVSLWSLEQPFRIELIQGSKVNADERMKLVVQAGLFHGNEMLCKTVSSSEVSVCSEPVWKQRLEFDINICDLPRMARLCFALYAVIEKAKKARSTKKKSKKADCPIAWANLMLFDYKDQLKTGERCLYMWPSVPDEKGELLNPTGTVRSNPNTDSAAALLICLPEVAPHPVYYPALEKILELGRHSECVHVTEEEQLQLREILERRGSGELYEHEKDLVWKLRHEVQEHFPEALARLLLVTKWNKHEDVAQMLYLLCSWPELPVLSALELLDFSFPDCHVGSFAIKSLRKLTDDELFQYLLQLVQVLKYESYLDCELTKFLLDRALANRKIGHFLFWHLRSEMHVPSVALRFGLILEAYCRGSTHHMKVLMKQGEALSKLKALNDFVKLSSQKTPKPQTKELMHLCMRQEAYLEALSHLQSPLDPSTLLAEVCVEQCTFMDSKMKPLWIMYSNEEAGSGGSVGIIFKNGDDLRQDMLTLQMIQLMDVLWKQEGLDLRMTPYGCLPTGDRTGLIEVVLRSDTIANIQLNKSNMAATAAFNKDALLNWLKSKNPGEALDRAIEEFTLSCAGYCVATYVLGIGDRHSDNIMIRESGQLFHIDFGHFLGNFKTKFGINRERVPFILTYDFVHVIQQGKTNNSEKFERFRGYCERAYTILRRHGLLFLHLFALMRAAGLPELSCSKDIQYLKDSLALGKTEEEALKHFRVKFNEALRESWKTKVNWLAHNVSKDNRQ

PIP5K1C = molecular target: T12, PIP5K1C (Homo sapiens, UniProt O60331); details: read-out: % control activity remaining
T12 construct: purchased Eurofins DiscoverX KINOMEscan
T12 sequence (O60331 whole entry): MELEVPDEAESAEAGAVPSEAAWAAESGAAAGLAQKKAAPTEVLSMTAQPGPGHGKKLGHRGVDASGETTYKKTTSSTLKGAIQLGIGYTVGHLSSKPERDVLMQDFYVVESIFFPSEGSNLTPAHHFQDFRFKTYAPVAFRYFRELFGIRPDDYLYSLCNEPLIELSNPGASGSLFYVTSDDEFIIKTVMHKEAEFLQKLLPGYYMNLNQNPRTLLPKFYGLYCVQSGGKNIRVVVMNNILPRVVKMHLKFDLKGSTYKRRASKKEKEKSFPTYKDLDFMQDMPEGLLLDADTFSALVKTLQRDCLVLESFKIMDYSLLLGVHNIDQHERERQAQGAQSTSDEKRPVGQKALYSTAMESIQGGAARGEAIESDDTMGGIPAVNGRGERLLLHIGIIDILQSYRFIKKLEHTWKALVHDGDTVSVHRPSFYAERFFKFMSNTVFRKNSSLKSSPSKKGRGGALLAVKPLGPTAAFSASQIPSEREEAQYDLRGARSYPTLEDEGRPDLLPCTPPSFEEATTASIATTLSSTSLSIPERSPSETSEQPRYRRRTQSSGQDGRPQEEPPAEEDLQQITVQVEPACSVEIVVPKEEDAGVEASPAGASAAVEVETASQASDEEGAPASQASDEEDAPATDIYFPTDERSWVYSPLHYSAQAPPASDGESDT

PRKD1 = molecular target: T13, PRKD1 (Homo sapiens, UniProt Q15139); details: read-out: % control activity remaining
T13 construct: purchased Eurofins DiscoverX KINOMEscan
T13 sequence (Q15139 1-912): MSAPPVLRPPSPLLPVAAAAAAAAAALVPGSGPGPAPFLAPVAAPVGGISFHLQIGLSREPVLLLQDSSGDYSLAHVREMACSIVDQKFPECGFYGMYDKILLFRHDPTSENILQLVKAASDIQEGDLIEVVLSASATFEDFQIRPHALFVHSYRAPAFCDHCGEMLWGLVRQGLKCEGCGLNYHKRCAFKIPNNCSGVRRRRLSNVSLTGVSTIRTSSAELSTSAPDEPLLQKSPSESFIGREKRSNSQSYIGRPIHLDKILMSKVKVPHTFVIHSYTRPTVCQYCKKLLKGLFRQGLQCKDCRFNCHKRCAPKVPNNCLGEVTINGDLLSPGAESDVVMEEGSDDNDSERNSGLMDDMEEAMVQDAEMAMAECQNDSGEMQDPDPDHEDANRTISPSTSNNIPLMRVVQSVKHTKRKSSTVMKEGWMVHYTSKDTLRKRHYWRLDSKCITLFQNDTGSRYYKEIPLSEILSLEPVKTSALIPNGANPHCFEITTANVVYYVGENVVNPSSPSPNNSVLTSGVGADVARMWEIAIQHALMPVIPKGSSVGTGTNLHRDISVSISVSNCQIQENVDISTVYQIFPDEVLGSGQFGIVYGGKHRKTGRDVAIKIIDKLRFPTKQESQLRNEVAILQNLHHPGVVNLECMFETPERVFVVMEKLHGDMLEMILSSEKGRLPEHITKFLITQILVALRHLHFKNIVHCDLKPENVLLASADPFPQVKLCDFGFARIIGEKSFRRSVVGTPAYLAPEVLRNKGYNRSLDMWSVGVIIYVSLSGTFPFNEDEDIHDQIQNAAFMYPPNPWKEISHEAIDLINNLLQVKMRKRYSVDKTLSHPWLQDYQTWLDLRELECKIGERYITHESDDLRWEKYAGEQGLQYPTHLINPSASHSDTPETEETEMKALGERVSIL

[1] = molecular target: T14, RPS6KA5(Kin.Dom.1-N-terminal) (Homo sapiens, UniProt O75582); details: read-out: % control activity remaining
T14 construct: RPS6KA5(Kin.Dom.1-N-terminal); purchased Eurofins DiscoverX KINOMEscan
T14 sequence (O75582 49-318 limits assumed): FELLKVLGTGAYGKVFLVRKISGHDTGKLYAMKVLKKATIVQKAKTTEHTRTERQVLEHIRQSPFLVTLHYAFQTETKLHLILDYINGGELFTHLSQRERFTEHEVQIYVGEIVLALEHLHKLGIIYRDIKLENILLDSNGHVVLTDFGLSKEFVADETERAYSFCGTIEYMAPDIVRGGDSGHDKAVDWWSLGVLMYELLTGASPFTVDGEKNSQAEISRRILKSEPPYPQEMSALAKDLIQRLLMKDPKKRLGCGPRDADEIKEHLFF

ZAK = molecular target: T15, ZAK (Homo sapiens, UniProt Q9NYL2); details: read-out: % control activity remaining
T15 construct: purchased Eurofins DiscoverX KINOMEscan
T15 sequence (Q9NYL2 whole entry): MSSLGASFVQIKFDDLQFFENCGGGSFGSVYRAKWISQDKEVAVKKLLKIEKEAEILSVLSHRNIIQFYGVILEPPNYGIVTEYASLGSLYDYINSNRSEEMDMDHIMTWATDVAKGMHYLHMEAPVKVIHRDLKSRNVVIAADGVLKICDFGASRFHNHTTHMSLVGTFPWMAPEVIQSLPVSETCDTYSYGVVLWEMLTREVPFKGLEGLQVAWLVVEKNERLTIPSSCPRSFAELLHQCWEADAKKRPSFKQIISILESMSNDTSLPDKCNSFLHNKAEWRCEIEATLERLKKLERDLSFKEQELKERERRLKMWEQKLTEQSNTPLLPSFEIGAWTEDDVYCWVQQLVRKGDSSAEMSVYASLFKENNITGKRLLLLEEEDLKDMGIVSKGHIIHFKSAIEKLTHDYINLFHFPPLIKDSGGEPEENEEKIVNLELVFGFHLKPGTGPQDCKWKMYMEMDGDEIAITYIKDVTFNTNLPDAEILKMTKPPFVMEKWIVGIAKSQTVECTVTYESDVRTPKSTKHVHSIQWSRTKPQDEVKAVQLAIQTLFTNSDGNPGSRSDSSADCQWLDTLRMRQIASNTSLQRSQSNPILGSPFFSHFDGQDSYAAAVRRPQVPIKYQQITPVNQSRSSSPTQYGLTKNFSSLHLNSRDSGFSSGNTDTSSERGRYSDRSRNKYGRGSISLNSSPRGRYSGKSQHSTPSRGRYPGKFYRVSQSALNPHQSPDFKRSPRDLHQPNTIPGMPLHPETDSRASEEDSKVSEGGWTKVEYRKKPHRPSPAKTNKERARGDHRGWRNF

T1 sequence (Q96RR4 whole entry): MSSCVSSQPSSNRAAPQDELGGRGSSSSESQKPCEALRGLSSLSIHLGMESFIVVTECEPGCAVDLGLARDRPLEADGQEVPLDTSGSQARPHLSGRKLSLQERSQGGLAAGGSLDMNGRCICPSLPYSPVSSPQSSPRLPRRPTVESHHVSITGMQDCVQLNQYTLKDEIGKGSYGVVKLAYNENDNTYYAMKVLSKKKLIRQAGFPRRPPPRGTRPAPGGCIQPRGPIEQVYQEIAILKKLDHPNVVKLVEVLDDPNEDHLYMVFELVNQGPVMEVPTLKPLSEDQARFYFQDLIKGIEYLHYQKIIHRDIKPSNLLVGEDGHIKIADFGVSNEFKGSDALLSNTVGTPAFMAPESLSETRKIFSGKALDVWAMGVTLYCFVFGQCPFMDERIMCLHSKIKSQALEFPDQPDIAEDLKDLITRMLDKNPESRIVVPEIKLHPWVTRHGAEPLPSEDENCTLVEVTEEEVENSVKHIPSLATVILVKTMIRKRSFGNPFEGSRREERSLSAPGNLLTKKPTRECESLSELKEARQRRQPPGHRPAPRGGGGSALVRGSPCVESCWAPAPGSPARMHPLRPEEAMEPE

SMILES: Clc1cc(NCC2CC2)c2ncc(-c3ccc4[nH]ncc4c3)n2n1 [compound 2, 6-Chloro-N-(cyclopropylmethyl)-3-(1H-indazol-5-yl)imidazo[1,2-b]pyridazin-8-amine]
- remaining binding at 1 µM (CAMKK2): 99%
- remaining binding at 1 µM (ERBB3): 96%
- remaining binding at 1 µM (FAK): 91%
- remaining binding at 1 µM (FYN): 95%
- remaining binding at 1 µM (HIPK1): 42%
- remaining binding at 1 µM (KIT(A829P)): 75%
- remaining binding at 1 µM (MLK2): 100%
- remaining binding at 1 µM (MST3): 100%
- remaining binding at 1 µM (PDGFRB): 1.3%
- remaining binding at 1 µM (PIK3CA(E542K)): 72%
- remaining binding at 1 µM (PIK3CD): 92%
- remaining binding at 1 µM (PIP5K1C): 85%
- remaining binding at 1 µM (PRKD1): 100%
- remaining binding at 1 µM [1]: 100%
- remaining binding at 1 µM (ZAK): 86%

SMILES: O=C(CN1CCOCC1)N[C@H]1CC[C@H](Nc2cc(Cl)nn3c(-c4ccc5[nH]ncc5c4)cnc23)CC1 [compound 26]
- remaining binding at 1 µM (CAMKK2): 42%
- remaining binding at 1 µM (ERBB3): 99%
- remaining binding at 1 µM (FAK): 100%
- remaining binding at 1 µM (FYN): 96%
- remaining binding at 1 µM (HIPK1): 0.45%
- remaining binding at 1 µM (KIT(A829P)): 45%
- remaining binding at 1 µM (MLK2): 92%
- remaining binding at 1 µM (MST3): 91%
- remaining binding at 1 µM (PDGFRB): 0.05%
- inhibition at 1 µM (PDGFRB; read-out: Probe binding inhibited): > 90%
- remaining binding at 1 µM (PIK3CA(E542K)): 93%
- remaining binding at 1 µM (PIK3CD): 90%
- remaining binding at 1 µM (PIP5K1C): 91%
- remaining binding at 1 µM (PRKD1): 98%
- remaining binding at 1 µM [1]: 99%
- remaining binding at 1 µM (ZAK): 87%

SMILES: CN1CCC(CNc2cc(Cl)nn3c(-c4cc5nc(Nc6ccccc6)[nH]c5cc4F)cnc23)CC1 [compound 31, 6-Chloro-3-(6-fluoro-2-(phenylamino)-1H-benzo[d]imidazol-5-yl)-N-((1-methylpiperidin-4-yl)methyl)imidazo[1,2-b]pyridazin-8-amine]
- remaining binding at 1 µM (CAMKK2): 100%
- remaining binding at 1 µM (ERBB3): 71%
- remaining binding at 1 µM (FAK): 97%
- remaining binding at 1 µM (FYN): 98%
- remaining binding at 1 µM (HIPK1): 74%
- remaining binding at 1 µM (KIT(A829P)): 94%
- remaining binding at 1 µM (MLK2): 88%
- remaining binding at 1 µM (MST3): 92%
- remaining binding at 1 µM (PDGFRB): 56%
- remaining binding at 1 µM (PIK3CA(E542K)): 65%
- remaining binding at 1 µM (PIK3CD): 75%
- remaining binding at 1 µM (PIP5K1C): 84%
- remaining binding at 1 µM (PRKD1): 99%
- remaining binding at 1 µM [1]: 100%
- remaining binding at 1 µM (ZAK): 93%
